In article PMC5007466, “VCP recruitment to mitochondria causes mitophagy impairment and neurodegeneration in models of Huntington's disease” (Nature Communications, 2016):

Experiments:
[1] = test system: HdhQ111 / HdhQ7 mouse striatal cells; assay: VCP mitochondrial level, mouse striatal cells (western blot); type: cell-based
Description: Immortalized striatal cell lines HdhQ111 mutant and HdhQ7 wt cells were obtained from the CHDI Foundation. Cells were cultured in DMEM supplemented with 10% FBS, 100 μg/ml penicillin, 100 μg ml^−1 streptomycin, and 400 μg ml^−1 G418. Cells were grown at 33 °C in a 5% CO2 incubator. Cells within 14 passages were used in all experiments.
For silencing Htt and VCP in HD striatal cells, control siRNA, mouse Htt and mouse VCP siRNA were purchased from Thermo Fisher Scientific. HdhQ7 and HdhQ111 cells were transfected either with control siRNA, or Htt or VCP siRNA using TransIT-TKO Transfection Reagent (Mirus Bio, LLC), according to the manufacturer's instructions. The sequences for the siRNAs used in this study are as follows: mouse Htt, 5′-[…]-3′; Mouse VCP, 5′-GAGAGCAACCUUCGUAAG-3′; control non-targeting siRNA, 5′-TTCTCCGAACGTGTCACGT-3′.
Cells were washed with cold PBS and incubated on ice for 30 min in a lysis buffer (250 mM sucrose, 20 mM HEPES-NaOH, pH 7.5, 10 mM KCl, 1.5 mM MgCl2, 1 mM EDTA, protease inhibitor cocktail and phosphatase inhibitor cocktail). Mouse brains were minced and homogenized in the lysis buffer and then placed on ice for 30 min. Collected cells or tissue were disrupted 20 times by repeated aspiration through a 25-gauge needle, followed by a 30-gauge needle. The homogenates were spun at 800 g for 10 min at 4 °C, and the resulting supernatants were spun at 10,000 g for 20 min at 4 °C. The pellets were washed with lysis buffer and spun at 10,000 g again for 20 min at 4 °C. The final pellets were suspended in lysis buffer containing 1% Triton X-100 and were mitochondrial-rich lysate fractions. The supernatant was centrifuged at 100,000 g, 4 °C, for 1 h, the pellets were suspended in lysis buffer containing 1% Triton X-100 as ER fractions. The final supernatant was cytosolic fractions. The mitochondrial proteins VDAC, the ER protein WFS1 and the cytosolic protein Enolase were used as loading controls for mitochondrial, ER and cytosolic fractions, respectively.
Protein concentrations were determined by Bradford assay. […]

[2] = test system: HD patient-iPS cell derived neurons; assay: LDH release after BDNF withdrawal; type: cell-based, human; conditions: 1 μM per day for 5 days, BDNF withdrawal 24 h
Description: Figure 4 HV-3 treatment reduces mitochondrial damage and cell death in HD cell cultures. Mouse HdhQ7 and HdhQ111 striatal cells were treated with control peptide TAT or peptide HV-3 (3 uM/day for 3 days). (a) Left panel: Mitochondrial membrane potential (MMP) was determined by TMRM fluorescent dye. Right panel: HdhQ111 cells were transfected with control siRNA (siCon) and VCP siRNA (siVCP) for three days. The MMP was determined by TMRM in HdhQ111 cells treated with TAT or HV-3. (b) Mitochondrial morphology was determined by staining cells with anti-Tom20 antibody. Scale bar: 10 μm. The percentage of cells with fragmented mitochondria relative to the total number of cells was quantitated. At least 100 cells per group were counted. (c) Mitochondrial morphology was determined by EM. The length of mitochondria and the number of mitophagosomes were quantitated. At least 90 mitochondria per group were counted. […] HMGB1 release into culture medium was determined by IB analysis with anti-HMGB1 antibody. […] Cell death was determined by the release of LDH. […] (g) Quantitation of neurite length of medium spiny neurons. At least 50 neurons per group were counted by an observer blind to experimental conditions. (h) Left: the MMP was determined by TMRM fluorescent dye. […] Mitochondrial length along neurites of DARPP32/Tuj1-positive neurons was quantitated. […]

CSCC[C@H](NC(=O)[C@@H](NC(=O)[C@H](CC(C)C)NC(=O)[C@@H](NC(=O)[C@H](Cc1c[nH]cn1)NC(=O)CCCCCNC(=O)[C@H](CCCNC(=N)N)NC(=O)[C@H](CCCNC(=N)N)NC(=O)[C@H](CCCNC(=N)N)NC(=O)[C@H](CCC(N)=O)NC(=O)[C@H](CCCNC(=N)N)NC(=O)[C@H](CCCNC(=N)N)NC(=O)[C@H](CCCCN)NC(=O)[C@H](CCCCN)NC(=O)[C@H](CCCNC(=N)N)NC(=O)CNC(=O)[C@@H](N)Cc1ccc(O)cc1)C(C)C)C(C)C)C(=O)N[C@@H](CS)C(=O)N[C@@H](C)C(=O)N[C@H](C(N)=O)[C@@H](C)O [HV-3]
VCP translocation to mitochondria ([1]; HdhQ111 cells, HV-3 3 μM per day for 3 days versus TAT, n=3): abolished VCP translocation to the mitochondria
VCP mitochondrial levels, wt ([1]; wt counterparts of the HD models): only minor effects
neuronal cell death [2]: suppressed neuronal cell death
